Structures are written as SMILES. pIC50, pKi: −log10 of the molar value.

Among the data in ChEMBL document CHEMBL1134191, “Pharmacophore-based discovery, synthesis, and biological evaluation of 4-phenyl-1-arylalkyl piperidines as dopamine transporter inhibitors” (Bioorg Med Chem Lett, 2001) are Ki and IC50 values, retold here.

For assay [1], the species on record is Rattus norvegicus. As to the kind of experiment: Inhibition of [3H]dopamine uptake by striatal membrane preparations. Format: functional, Striatum.
Assay [2] is filed under the species Rattus norvegicus. As to the kind of experiment: Inhibition of [3H]-dopamine uptake into striatal membrane preparations. In kind it is functional, Striatum.
The species entered for assay [3] is Rattus norvegicus. Description: Inhibitory concentration for [3H]-dopamine uptake by striatal membrane preparations in presence of 1000 nM compound 5. The conditions noted are these: Striatum. Format: functional.
Assay [4] is filed under the species Rattus norvegicus. Description: Inhibitory concentration for [3H]dopamine uptake by striatal membrane preparations in presence of 20 nM compound 43. Format: functional. The conditions noted are these: Striatum.
The species entered for assay [5] is Rattus norvegicus. Description: Inhibitory concentration for [3H]dopamine uptake by striatal membrane preparations in presence of 500 nM compound 5. The conditions noted are these: Striatum. Format: functional.
The species named for assay [6] is Rattus norvegicus. As to the kind of experiment: Inhibitory concentration for [3H]-dopamine uptake by striatal membrane preparations in presence of 50 nM compound 43. The conditions noted are these: Striatum. Format: functional.

For orientation: pKi means the Ki on a negative log10 scale, so that one unit is a factor of ten. A high value points to a small Ki. For the compound `Fc1ccc(OCCN2CCC(c3ccc(F)cc3)CC2)cc1`, in the assay filed under Rattus norvegicus [1], the pKi was 6.08.

`O=C(CCN1CCC(c2ccccc2)CC1)c1ccc(F)cc1`: the pKi in the assay filed under Rattus norvegicus [2] was 5.81.

The compound `Fc1ccc(CN2CCC(c3ccc(F)cc3)CC2)cc1` gave a pKi in the assay listed under Rattus norvegicus [2] of less than 5.00.

As for `Clc1ccc(OCCN2CCC(c3ccc(Cl)cc3)CC2)cc1`, the pKi in the assay filed under Rattus norvegicus [2] was 7.05.

For `O=C(CN1CCC(c2ccc(F)cc2)CC1)c1ccc(F)cc1`, the pKi in the assay filed under Rattus norvegicus [2] was 5.36.

In the assay filed under Rattus norvegicus [2], `OC1(c2ccccc2)CCN(CCOc2ccc(F)cc2)CC1` gave a pKi of 4.76.

`O=C(CCCN1CCC(c2ccc(F)cc2)CC1)c1ccc(F)cc1` gave a pKi in the assay listed under Rattus norvegicus [2] of 5.50.

As to `Fc1ccc(CCN2CCC(c3ccc(F)cc3)CC2)cc1`, the pKi in the assay listed under Rattus norvegicus [2] is 5.87.

`O=C(CCN1CCC(c2ccc(F)cc2)CC1)c1ccc(F)cc1`: the pKi in the assay listed under Rattus norvegicus [2] was 5.57.

One may read the pIC50 as the negative decadic logarithm of the IC50, by convention in mol/L. On to `COC(=O)[C@H]1[C@@H](OC(=O)c2ccccc2)C[C@@H]2CC[C@H]1N2C` [COCAINE], for which the pIC50 in the assay listed under Rattus norvegicus [3] was 6.16; in the assay filed under Rattus norvegicus [4], 6.31; in the assay listed under Rattus norvegicus [5], 6.27; in the assay filed under Rattus norvegicus [6], 6.16.

Consider `Fc1ccc(CCCCN2CCC(c3ccc(F)cc3)CC2)cc1`, for which the pKi in the assay filed under Rattus norvegicus [2] was 5.60.

`Fc1ccc(OCCN2CCC(c3ccccc3)CC2)cc1`: the pKi in the assay filed under Rattus norvegicus [2] was 5.57.
